Measured values from patent US20250269018A1, “COMBINED CANCER THERAPY WITH AN EPITHELIAL CELL ADHESION MOLECULE (EPCAM) INHIBITOR AND A HEPATOCYTE GROWTH FACTOR RECEPTOR (HGFR) INHIBITOR” (ACADEMIA SINICA, priority 2021, published 2025).

Legend:
HCT116 cells [1] = assay: Transwell migration/invasion and wound healing assay, HCT116; type: cell-based, human; details: HCT116; 10 μg/ml EpAb2-6 and 10 μM crizotinib; 24 h; vs control IgG; FIG. 7G
Description: FIGS. 3A to 3H. EpEX induces the activation of ERK and FAK-AKT signaling pathway. Wild type (WT) or EpCAM knockout (KO) HCT116 cells after EpEX-His treatment. (FIG. 3A) The levels of phosphorylated HGFR, AKT, FAK, GSK3β, ERK, ADAM17, and presenilin 2 were assayed by Western blotting. (FIG. 3B) Colony formation was examined by crystal violet staining. (FIG. 3C) HCT116 cells were treated with TAPI (ADAM17 inhibitor) or DAPT (γ-secretase inhibitor) for 24 hours, and the phosphorylation of HGFR, AKT, and ERK was analyzed by Western blotting, and EpEX protein level in culture medium was examined by immunoprecipitation and Western blotting. (FIG. 3D) HCT116 and HT29 cells were starved for 16 h, then treated with EpEX-His (50 nM) and HGF (0.5 nM) for 15 min. The levels of phosphorylated HGFR, AKT, and ERK were examined by Western blotting. (FIG. 3E) HCT116 cells were starved for 16 h, then treated with 50 nM EpEX-His for 15 min. HGFR inhibitor SU11274 (SU, 10 μM), AKT inhibitor LY294002 (LY, 25 μM), ERK inhibitor U0126 (U0, 20 μM), or FAK inhibitor PF-562271 (PF, 10 μM) were applied 1 h before EpEX treatment. Phosphorylation of AKT, ERK, and FAK was examined by Western blotting. (FIG. 3F) HCT116 cells were starved for 16 h, then treated with 50 nM EpEX, and SU (10 μM), LY (25 μM), U0 (20 μM) or PF (10 μM). Colony formation was examined by crystal violet staining after treatment for 7 days. The relative colony densities are shown. Migration ability was examined by the (FIG. 3G) wound healing assay at the indicated times. (FIG. 3H) The numbers of migration cell was assessed by a Transwell after treatment for 24 h.
FIGS. 4A to 4L. EpEX induces EMT and invasion by stabilizing β-catenin and Snail through decreasing GSK3β activity. (FIG. 4A) The protein expression of EMT markers and regulators was detected by Western blotting in Wild-type (WT) or EpCAM knockout (KO) HCT116 cells after EpEX treatment. (FIG. 4B) Cell invasion was examined by Transwell chamber assay with matrigel. (FIG. 4C) WT or KO HCT116 and HT29 cells were starved for 16 h, then treated with 0.5 nM of HGF with 2% FBS for 24 h. EMT-related protein expression (E-cadherin, vimentin, and Snail) was examined by Western blotting. (FIG. 4D) WT or KO HCT116 and HT29 cells were treated with HGF (0.5 nM) for 24 h. Invasion by HCT116 and HT29 cells was examined by Transwell chamber assay with matrigel. (FIG. 4E) HCT116 and HT29 cells were starved for 16 h, then treated with 0.5 nM of HGF with 2% FBS for 24 h. EMT-related protein expression (E-cadherin, Vimentin, and Snail) was examined by Western blotting. (FIG. 4F) HCT116 and HT29 cells were starved for 16 h, then treated with 0.5 nM of HGF with 2% FBS for 24 h. Cell invasion was assessed by a Transwell assay with matrigel. (FIG. 4G) HCT116 cells after shLuc and shHGFR treatment were treated with 50 nM of EpEX-His. HCT116 cells after shLuc and shHGFR treatment were treated with 50 nM of EpEX-His with 2% FBS for 24 h. EMT-related protein expression (E-cadherin, Vimentin, and Snail) was examined by Western blotting. (FIG. 4H) Cell invasion was examined by Transwell chamber assay with matrigel. (FIG. 4I) Starved HCT116 cells were treated SU (10 μM) for 1 h, followed by treatment with EpEX-His (50 nM) for 24 h. Phosphorylated GSK3β, active-β-catenin, and Snail were detected by Western blotting. (FIG. 4J) HCT116 cells were starved for 16 h, then treated with 50 nM EpEX-His for 24 min. AKT inhibitor LY294002 (25 μM), ERK inhibitor U0126 (20 μM), or PF-562271 (10 μM) were applied 1 h before EpEX treatment. Protein expression of phosphorylated GSK3β and Snail was examined by Western blotting. (FIG. 4K) HCT116 cells were starved for 16 h, then treated with 50 nM EpEX, and SU (10 μM), LY (25 μM), UO (20 μM) or PF (10 μM). Cell invasion was examined by Transwell chamber assay with matrigel. (FIG. 4L) Protein expression was analyzed by Western blotting in EpEX-His (50 nM) treated HCT116 cells after treatment with or without 2 μM GSK3β inhibitor (BIO) for 24 h. […]

HT29 cells [2] = assay: Apoptosis assay, annexin V-FITC/PI double labeling, HT29; type: cell-based, human; details: 10 μg/ml EpAb2-6 and 4 μM crizotinib 24 h, FIG. 7F
Description: (§1) FIGS. 7A to 7G. EpAb2-6 binds EpEX and induces apoptosis by F(ab′)2 and inhibits regulated intramembrane proteolysis (RIP) activation and HGFR signaling. (FIG. 7A) Binding affinity of IgG EpAb2-6 (mouse) and F(ab′)2 to EpEX-His (1 μg/ml) coated overnight was checked using ELISA (OD450). (FIG. 7B) HCT116 cells were treated with 100 μg/ml control IgG, Fc, or F(ab′)2 of EpAb2-6 for 24 h. The apoptotic and necrotic cells were quantified by fluorescein annexin V-FITC/PI double labeling. (FIG. 7C) HCT116 and HT29 cells were treated with 10 μg/ml control IgG, MT201, humanized EpAb2-6 (hEpAb2-6) or mouse hybridoma EbAb2-6 (mEpAb2-6) for 24 h. The apoptotic and necrotic cells were quantified by fluorescein annexin V-FITC/PI double labeling. (FIG. 7D) HCT116 cells were treated with 10 μg/ml control IgG, MT201, hEpAb2-6 or mEpAb2-6 for 16 h, followed by treatment with EpEX-His (50 nM) for 15 min. Levels of phosphorylated HGFR, AKT, and ERK, and (FIG. 7E) RIP proteins ADAM17 and presenilin 2 were examined by Western blotting. Anti-EpCAM antibody and crizotinib coordinately induces apoptosis in colon cancer cells. (FIG. 7F) HCT116 and HT29 cells were treated with 10 μg/ml NMIgG or EpAb2-6 and 4 μM HGFR inhibitor crizotinib for 24 h. The apoptotic and necrotic cells were quantified by fluorescein annexin V-FITC/PI double labeling. (FIG. 7G) HCT116 and HT29 cells were treated with 10 μg/ml NMIgG or EpAb2-6 and 10 μM HGFR inhibitor crizotinib. Cell invasion was assessed by a Transwell assay with matrigel after 24 h.
(§2) Cells were seeded and treated with 10 μg/ml mAb or inhibitor for 6 h; an unrelated mouse myeloma immunoglobulin used at appropriate dilution served as the IgG2a (Invitrogen #02-6200) isotype control. Apoptotic cells were detected using Annexin V-FITC and PI, and were analyzed using a flow cytometer (BD Immmunocytometry Systems). Early apoptosis was measured with the Annexin V-FITC Apoptosis Detection kit II (BD Pharmingen). Late apoptotic nuclei were detected with propidium iodide (PI) staining.

HCT116 cells [3] = assay: Apoptosis assay, annexin V-FITC/PI double labeling, HCT116; type: cell-based, human
Description: as §1, §2

HT29 cells [4] = assay: Transwell invasion assay with matrigel, HT29; type: cell-based, human; details: 10 μg/ml EpAb2-6 and 10 μM crizotinib, 24 h, vs control IgG, FIG. 7G
Description: Cell migration and invasion were assayed with 8-μm pore size Transwell migration chambers (Millicell) without or with 10% matrigel. Cells (1×10^5) were added to the upper chamber in 500 μl serum-free DMEM. Then, 700 μl DMEM containing 10% FBS was added to the lower chamber as a chemoattractant. Migration and invasion were allowed to proceed for 16 h at 37° C. in a standard cell culture incubator. Then, cells were removed from the upper surface of the membranes with cotton swabs, and the cells that had migrated to the lower surface were stained with 0.05% (w/v) crystal violet in 4% paraformaldehyde (in 1×PBS) for 15 min and washed with water. Membranes were dried for 15-20 min before at least four random fields on the membrane examined at high power were counted for each experimental condition.

HCT116 or HT29 = assay: Metastatic and orthotopic animal models of colon cancer, overall statements
Description: Colon cancer HCT116 or HT29 (5×10^6 cells/mouse) in PBS were injected into 4-6-week-old female NOD/SCID mice through the tail vein. Mice were then randomly assigned to different treatment groups by body weight. After 3 days, antibodies were administered through tail vein injection twice a week for four consecutive weeks. Crizotinib was administered daily by oral gavage for 5 days per week (treatment for four weeks). For the therapeutic study, tumor-bearing mice were treated with isotype control IgG1 (15 mg/kg), crizotinib (20 mg/kg), EpAb2-6 (15 mg/kg), or crizotinib (20 mg/kg) combined with EpAb2-6 (15 mg/kg). Mouse survival rate were measured.
Orthotopic tumor models were created as previously reported (Chen et al., 2020). Briefly, NSCID mice were used for orthotopic implantation of HCT116 cells previously infected with Lenti-luc virus (lentivirus containing luciferase gene). The mice were anesthetized by i.p. injection ofAvertin, 2,2,2-Tribromo-ethanol (Sigma-Aldrich) at a dose of 250 mg/kg. Tumor development was monitored by bioluminescence imaging. For the therapeutic study, tumor-bearing mice were treated with isotype control IgG1 (15 mg/kg), crizotinib (20 mg/kg), EpAb2-6 (15 mg/kg), or crizotinib (20 mg/kg) combined with EpAb2-6 (15 mg/kg). Tumor progression was monitored by quantification of bioluminescence. Mouse survival was also monitored.

Structure (SMILES): C[C@@H](Oc1cc(-c2cnn(C3CCNCC3)c2)cnc1N)c1c(Cl)ccc(F)c1Cl [crizotinib, 3-[(1R)-1-(2,6-dichloro-3-fluorophenyl)ethoxy]-5-(1-piperidin-4-ylpyrazol-4-yl)pyridin-2-amine]
- effect of crizotinib on the inhibitory effect of EpAb2-6 on invasion (HCT116 cells [1]): enhanced the inhibitory effect of EpAb2-6 on invasion
- effect of crizotinib on the apoptotic effects of EpAb2-6 (HT29 cells [2]): enhance the apoptotic effects of EpAb2-6
- effect of crizotinib on the apoptotic effects of EpAb2-6 (HCT116 cells [3]; 10 μg/ml EpAb2-6 and 4 μM crizotinib 24 h, FIG. 7F): enhance the apoptotic effects of EpAb2-6
- sensitization of HCT116 cells to antibody-induced apoptosis after crizotinib treatment (HCT116 cells [3]; discussion statement): sensitized to humanized-EpAb2-6- and EpAb2-6-induced apoptosis
- effect of crizotinib on the inhibitory effect of EpAb2-6 on invasion (HT29 cells [4]): enhanced the inhibitory effect of EpAb2-6 on invasion
- survival (HCT116 or HT29): poor survival
- tumor progression (HCT116 or HT29): developed significant tumors
